According to patent US7598377B2, “Inhibition of phosphoinositide 3-kinase β” (AstraZeneca AB, priority 2002, dated 2009):

How the values were obtained:
p110α-PI3K = target: T1, p110α-PI3K (Homo sapiens, UniProt P42336); test: In vitro enzyme assay, p110α immunoprecipitated from platelet lysate (Biological Example 1); assay type: biochemical; details: Table I; read-out: inhibitory concentration, alpha
T1 construct: The α and β isoforms of the PI3K were immunoprecipitated from a platelet lysate; from tissue; host or cells: washed platelets (lysate, immunoprecipitated with anti-p110α antibody)
T1 sequence (P42336 whole entry, canonical isoform): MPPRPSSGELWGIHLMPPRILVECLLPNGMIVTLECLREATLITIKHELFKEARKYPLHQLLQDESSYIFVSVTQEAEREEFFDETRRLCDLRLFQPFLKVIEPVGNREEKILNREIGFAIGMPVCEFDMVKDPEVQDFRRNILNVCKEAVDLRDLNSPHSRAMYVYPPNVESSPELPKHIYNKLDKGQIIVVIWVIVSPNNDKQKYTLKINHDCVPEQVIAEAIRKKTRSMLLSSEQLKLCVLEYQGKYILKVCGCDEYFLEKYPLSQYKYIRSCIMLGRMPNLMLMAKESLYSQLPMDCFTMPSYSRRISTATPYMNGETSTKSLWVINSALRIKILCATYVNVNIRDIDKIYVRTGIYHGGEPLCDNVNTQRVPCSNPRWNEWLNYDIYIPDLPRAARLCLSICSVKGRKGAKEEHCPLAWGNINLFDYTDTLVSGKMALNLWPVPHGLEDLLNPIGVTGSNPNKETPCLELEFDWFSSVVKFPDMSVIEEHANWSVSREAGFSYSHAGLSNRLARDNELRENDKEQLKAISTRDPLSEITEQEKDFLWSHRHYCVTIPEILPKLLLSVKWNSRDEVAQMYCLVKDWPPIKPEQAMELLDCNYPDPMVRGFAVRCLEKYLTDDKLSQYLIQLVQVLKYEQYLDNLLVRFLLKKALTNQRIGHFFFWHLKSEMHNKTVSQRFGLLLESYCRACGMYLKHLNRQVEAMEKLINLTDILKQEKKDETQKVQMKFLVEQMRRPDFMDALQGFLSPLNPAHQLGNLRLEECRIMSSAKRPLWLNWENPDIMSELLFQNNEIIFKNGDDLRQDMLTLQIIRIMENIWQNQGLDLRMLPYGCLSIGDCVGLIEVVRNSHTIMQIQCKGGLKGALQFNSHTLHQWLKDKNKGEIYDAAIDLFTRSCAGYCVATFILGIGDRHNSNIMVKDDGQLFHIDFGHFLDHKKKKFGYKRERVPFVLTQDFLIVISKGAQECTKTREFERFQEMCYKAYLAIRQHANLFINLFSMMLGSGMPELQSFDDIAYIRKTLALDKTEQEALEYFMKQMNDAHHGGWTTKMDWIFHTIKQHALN
T1 sequence (P27986 whole entry partner, canonical isoform): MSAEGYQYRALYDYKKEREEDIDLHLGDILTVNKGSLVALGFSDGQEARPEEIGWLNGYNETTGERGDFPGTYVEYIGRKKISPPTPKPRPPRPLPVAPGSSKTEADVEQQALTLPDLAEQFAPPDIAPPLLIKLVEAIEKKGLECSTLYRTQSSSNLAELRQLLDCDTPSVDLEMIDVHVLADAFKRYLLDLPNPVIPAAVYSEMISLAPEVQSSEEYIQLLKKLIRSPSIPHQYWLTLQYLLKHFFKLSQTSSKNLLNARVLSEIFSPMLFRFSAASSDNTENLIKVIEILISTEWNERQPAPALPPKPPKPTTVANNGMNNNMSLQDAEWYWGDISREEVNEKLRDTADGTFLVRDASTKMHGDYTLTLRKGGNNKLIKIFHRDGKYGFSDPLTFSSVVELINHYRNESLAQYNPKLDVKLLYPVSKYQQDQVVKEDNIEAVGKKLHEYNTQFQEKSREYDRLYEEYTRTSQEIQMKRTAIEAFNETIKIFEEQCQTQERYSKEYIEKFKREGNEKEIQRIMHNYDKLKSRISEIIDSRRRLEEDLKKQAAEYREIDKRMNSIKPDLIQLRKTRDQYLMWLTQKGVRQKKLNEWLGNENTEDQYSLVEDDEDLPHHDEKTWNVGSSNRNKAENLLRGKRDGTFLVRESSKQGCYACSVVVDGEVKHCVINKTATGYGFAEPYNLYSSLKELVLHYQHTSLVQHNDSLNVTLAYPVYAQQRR
Method: (§1) For each immunoprecipitation, 1 mg of lysate was incubated with an anti-p110α (1 μg), anti-p110β (1 μg), anti-p110δ (1 μg) or anti-PI4 kinase antibody (2-5 μg) and 50 μl of a 50% slurry of protein A beads overnight at 4° C. […] For PI4 kinase assays, protein A beads-immune complexes were also washed twice with lysis buffer, prior to two washes with 1× PI4 kinase assay buffer (20 mM Hepes, pH 7.5, 10 mM MgCl2, 0.3% Triton X-100) and the addition of other assay constituents, as described above. All reactions were terminated by the addition of 100 μl 1 M HCl, 200 μl choloroform/methanol (1:1) and 500 μl 2 M KCl and lipids extracted by centrifugation at 15,000×g for 2 minutes. The production of PI3 or PI4 kinase lipid products, PtdIns(3)P and PtdIns(4)P, were confirmed through TLC analysis. The lipid spots were then removed from the TLC plate and the level of radioactivity quantified to accurately determine the level of PtdIns(3)P/PtdIns(4)P production.

p110δ-PI3K = target: T2, p110δ-PI3K (Homo sapiens, UniProt O00329); test: In vitro enzyme assay, p110δ immunoprecipitated from platelet lysate (Biological Example 1); assay type: biochemical; details: Table I; read-out: inhibitory concentration, delta
T2 construct: from tissue; host or cells: washed platelets (lysate, immunoprecipitated with anti-p110δ antibody)
T2 sequence (O00329 whole entry): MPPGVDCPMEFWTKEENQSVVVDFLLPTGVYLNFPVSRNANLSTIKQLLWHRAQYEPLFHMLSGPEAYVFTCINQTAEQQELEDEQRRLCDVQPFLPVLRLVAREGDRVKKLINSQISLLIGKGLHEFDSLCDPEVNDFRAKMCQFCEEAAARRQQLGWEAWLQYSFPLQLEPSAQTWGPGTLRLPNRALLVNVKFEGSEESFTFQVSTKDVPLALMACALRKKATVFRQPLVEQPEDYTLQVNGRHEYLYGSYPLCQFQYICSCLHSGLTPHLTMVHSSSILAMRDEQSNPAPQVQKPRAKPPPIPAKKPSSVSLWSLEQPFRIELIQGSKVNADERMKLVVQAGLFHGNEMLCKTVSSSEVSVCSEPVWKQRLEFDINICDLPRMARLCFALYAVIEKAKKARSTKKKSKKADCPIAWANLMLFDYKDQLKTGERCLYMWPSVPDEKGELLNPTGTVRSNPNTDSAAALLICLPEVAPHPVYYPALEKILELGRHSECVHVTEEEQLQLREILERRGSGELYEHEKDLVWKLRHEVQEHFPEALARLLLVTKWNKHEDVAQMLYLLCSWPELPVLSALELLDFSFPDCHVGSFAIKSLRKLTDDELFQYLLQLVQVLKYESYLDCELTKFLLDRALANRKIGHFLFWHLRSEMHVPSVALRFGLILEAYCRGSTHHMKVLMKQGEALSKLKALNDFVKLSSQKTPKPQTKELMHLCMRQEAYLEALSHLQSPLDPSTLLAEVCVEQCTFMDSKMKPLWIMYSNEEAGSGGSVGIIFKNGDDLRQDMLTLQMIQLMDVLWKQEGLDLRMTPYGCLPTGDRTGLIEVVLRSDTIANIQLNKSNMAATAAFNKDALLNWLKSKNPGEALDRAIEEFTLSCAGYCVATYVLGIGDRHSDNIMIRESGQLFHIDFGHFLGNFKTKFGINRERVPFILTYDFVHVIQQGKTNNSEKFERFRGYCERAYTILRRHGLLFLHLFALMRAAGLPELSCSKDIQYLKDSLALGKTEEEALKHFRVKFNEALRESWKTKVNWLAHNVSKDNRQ
T2 sequence (P27986 whole entry partner): as the sequence (P27986 whole entry partner, canonical isoform) above
Method: as §1

p110β-PI3K = target: T3, p110β-PI3K (Homo sapiens, UniProt P42338); test: In vitro enzyme assay, p110β immunoprecipitated from platelet lysate (Biological Example 1); assay type: biochemical; details: Table I; for IC50: read-out: inhibitory concentration, beta
T3 construct: The α and β isoforms of the PI3K were immunoprecipitated from a platelet lysate; from tissue; host or cells: washed platelets (lysate, immunoprecipitated with anti-p110β antibody)
T3 sequence (P42338 whole entry, canonical isoform): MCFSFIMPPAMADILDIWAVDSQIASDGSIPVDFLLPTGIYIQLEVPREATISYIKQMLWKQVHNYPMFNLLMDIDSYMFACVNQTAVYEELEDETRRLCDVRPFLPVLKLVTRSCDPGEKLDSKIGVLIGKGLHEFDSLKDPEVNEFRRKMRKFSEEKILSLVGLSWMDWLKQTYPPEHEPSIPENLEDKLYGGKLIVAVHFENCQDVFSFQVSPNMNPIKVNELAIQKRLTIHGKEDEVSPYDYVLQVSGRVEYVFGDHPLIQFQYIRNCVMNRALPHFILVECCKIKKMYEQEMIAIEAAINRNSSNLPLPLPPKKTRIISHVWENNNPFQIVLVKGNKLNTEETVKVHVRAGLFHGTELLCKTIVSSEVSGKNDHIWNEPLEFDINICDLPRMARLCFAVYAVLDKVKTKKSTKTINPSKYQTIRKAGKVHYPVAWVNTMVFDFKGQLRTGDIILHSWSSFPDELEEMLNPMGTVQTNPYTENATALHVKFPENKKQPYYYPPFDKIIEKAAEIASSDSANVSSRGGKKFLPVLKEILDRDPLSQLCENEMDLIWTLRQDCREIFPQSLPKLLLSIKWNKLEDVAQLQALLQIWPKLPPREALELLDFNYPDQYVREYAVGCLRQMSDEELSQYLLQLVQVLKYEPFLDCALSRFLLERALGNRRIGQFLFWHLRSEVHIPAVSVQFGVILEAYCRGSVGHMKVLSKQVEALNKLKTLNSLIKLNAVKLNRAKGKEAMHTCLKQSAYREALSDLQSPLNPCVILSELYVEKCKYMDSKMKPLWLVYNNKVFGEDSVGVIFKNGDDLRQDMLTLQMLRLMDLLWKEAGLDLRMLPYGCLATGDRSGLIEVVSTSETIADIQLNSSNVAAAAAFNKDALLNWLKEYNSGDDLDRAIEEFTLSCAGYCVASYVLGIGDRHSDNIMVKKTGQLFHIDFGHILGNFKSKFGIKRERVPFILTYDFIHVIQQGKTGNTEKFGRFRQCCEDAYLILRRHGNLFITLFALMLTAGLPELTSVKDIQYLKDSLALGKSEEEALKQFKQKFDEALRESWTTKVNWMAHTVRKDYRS
T3 sequence (P27986 whole entry partner, canonical isoform): as the sequence (P27986 whole entry partner, canonical isoform) above
Method: as §1, with “The production of PI3 or PI4 kinase lipid products, PtdIns(3)P and PtdIns(4)P, were confirmed through TLC analysis.” left out

p110γ-PI3K = p110γ-PI3K (Homo sapiens, UniProt P48736); test: In vitro enzyme assay, p110γ recombinant protein (Biological Example 1); assay type: biochemical; details: Table I; read-out: inhibitory concentration, gamma
p110γ-PI3K, sequence (P48736 whole entry, canonical isoform): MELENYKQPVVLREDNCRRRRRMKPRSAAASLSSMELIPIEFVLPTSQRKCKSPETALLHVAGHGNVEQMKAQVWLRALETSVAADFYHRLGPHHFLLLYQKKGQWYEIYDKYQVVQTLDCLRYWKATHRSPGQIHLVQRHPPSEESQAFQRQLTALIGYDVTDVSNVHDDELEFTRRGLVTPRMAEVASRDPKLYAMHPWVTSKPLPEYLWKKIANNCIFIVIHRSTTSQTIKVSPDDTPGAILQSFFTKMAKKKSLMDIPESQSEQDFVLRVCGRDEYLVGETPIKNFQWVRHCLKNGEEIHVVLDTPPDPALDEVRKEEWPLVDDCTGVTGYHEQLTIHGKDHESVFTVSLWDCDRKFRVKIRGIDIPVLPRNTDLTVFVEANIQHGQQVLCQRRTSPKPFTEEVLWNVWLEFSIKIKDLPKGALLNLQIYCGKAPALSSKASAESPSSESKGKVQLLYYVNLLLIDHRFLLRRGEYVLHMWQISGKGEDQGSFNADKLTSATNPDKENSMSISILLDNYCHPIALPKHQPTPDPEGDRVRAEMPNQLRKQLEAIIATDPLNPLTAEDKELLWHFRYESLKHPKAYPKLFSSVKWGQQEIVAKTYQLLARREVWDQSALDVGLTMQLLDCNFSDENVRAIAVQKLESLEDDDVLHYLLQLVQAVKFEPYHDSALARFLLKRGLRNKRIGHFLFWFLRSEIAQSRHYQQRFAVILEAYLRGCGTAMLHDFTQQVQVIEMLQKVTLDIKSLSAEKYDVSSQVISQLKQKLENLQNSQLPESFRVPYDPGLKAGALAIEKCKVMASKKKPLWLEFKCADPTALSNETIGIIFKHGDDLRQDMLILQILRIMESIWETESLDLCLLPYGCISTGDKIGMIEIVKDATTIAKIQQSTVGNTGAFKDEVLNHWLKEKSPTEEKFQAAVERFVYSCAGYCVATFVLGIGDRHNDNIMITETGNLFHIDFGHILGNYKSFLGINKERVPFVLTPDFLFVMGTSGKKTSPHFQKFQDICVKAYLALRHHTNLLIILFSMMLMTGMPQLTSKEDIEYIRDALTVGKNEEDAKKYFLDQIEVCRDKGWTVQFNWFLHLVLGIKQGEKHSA
Excerpt: Reactions were terminated and lipid products analysed as described above for the other PI 3-kinase isoforms assays.

[1] = test system: platelets on immobilized vWf; test: In vitro flow studies: platelet calcium flux and adhesion on immobilized vWf; assay type: cell-based; details: vWf matrix, shear rate gradient up to 10,000 s^−1 over 1 s
Method: The use of an in vitro-flow based adhesion assay enables us to simultaneously analyze platelet adhesion dynamics and activation (by monitoring cytosolic calcium flux) on immobilized von Willebrand factor (vWf). Briefly, isolated platelets are perfused through vWf (100 μg/ml) coated microcapillary tubes and analysis of cytosolic calcium flux conducted in real-time by confocal microscopy.
Washed platelets (1.5×10^9) suspended in PWB were incubated with the calcium indicator dyes, Oregon Green 488 BAPTA-1, AM (1 μM) and Fura Red, AM (1.25 μM), for 30 min at 37° C. Platelets were washed twice with PWB prior to being resuspended in Tyrode's buffer containing 1 mM calcium.
For static adhesion assays, platelets were allowed to settle on the surface of vWf-coated coverslips for 30 min at 37° C. For flow assays, platelets were either perfused over a vWf-coated microcapillary tube at a constant shear rate of 600, 1800 or 10,000 s^−1 or allowed to settle on the surface of a vWf-coated microcapillary tube prior to being accelerated through a shear gradient of 10,000 s^−1 over a 1 s interval. Real time platelet calcium flux in individual platelets was monitored at 1 s intervals over the 30 min incubation period or at 0.586 s intervals for up to 175 s for static and flow-based assays, respectively.

| IC50 (p110α-PI3K) | IC50 (p110δ-PI3K) | Ratio δ/β (p110β-PI3K) | IC50 (p110β-PI3K) | IC50 (p110γ-PI3K) | SMILES | platelet responses to accelerated shear [1] |
| --- | --- | --- | --- | --- | --- | --- |
| > 5000 nM | 500 nM | 25.00 | 20 nM | > 5000 nM | Cc1cc(CN(C)c2ccccc2)c2nc(N3CCOCC3)cc(=O)n2c1 (racemic) [TGX-195, (±)-7-methyl-9-{[methyl(phenyl)amino]methyl}-2-morpholin-4-yl-pyrido[1,2-a]pyrimidin-4-one] | – |
| > 5000 nM | 80 nM | 11.43 | 7 nM | > 5000 nM | Cc1cc(C(C)Nc2cc(F)cc(F)c2)c2nc(N3CCOCC3)cc(=O)n2c1 (racemic) [TGX-239, (±)-9-[1-(3,5-difluorophenylamino)ethyl]-7-methyl-2-morpholin-4-yl-pyrido[1,2-a]pyrimidin-4-one] | – |
| > 5000 nM | 2000 nM | 40.00 | 50 nM | > 5000 nM | Cc1cc(C(C)Nc2ccc(Cl)cc2)c2nc(N3CCOCC3)cc(=O)n2c1 (racemic) [TGX-243, (±)-9-[1-(4-chlorophenylamino)ethyl]-7-methyl-2-morpholin-4-yl-pyrido[1,2-a]pyrimidin-4-one] | – |
| > 5000 nM | 1000 nM | 20.00 | 50 nM | > 5000 nM | Cc1cc(C(C)Nc2ccc(Cl)c(Cl)c2)c2nc(N3CCOCC3)cc(=O)n2c1 (racemic) [TGX-244, (±)-9-[1-(3,4-dichlorophenylamino)ethyl]-7-methyl-2-morpholin-4-yl-pyrido[1,2-a]pyrimidin-4-one] | – |
| > 5000 nM | 100 nM | 10.00 | 10 nM | > 5000 nM | Cc1cc(C(C)Nc2cccc(Cl)c2)c2nc(N3CCOCC3)cc(=O)n2c1 (racemic) [TGX-248, (±)-9-[1-(3-chlorophenylamino)ethyl]-7-methyl-2-morpholin-4-yl-pyrido[1,2-a]pyrimidin-4-one] | – |
| > 5000 nM | 1000 nM | 20.00 | 50 nM | > 5000 nM | Cc1cccc(NC(C)c2cc(C)cn3c(=O)cc(N4CCOCC4)nc23)c1 (racemic) [TGX-262, (±)-7-methyl-9-[1-(3-methylphenylamino)ethyl]-2-morpholin-4-yl-pyrido[1,2-a]pyrimidin-4-one] | – |
| > 5000 nM | 10000 nM | 133.33 | 75 nM | > 5000 nM | Cc1cc(C(C)Nc2cccc(C(F)(F)F)c2)c2nc(N3CCOCC3)cc(=O)n2c1 (racemic) [TGX-264, (±)-7-methyl-2-morpholin-4-yl-9-[1-(3-trifluoromethylphenylamino)ethyl]-pyrido[1,2-a]pyrimidin-4-one] | – |
| > 5000 nM | 2000 nM | 40.00 | 50 nM | > 5000 nM | Cc1cc(C(C)Nc2ccccn2)c2nc(N3CCOCC3)cc(=O)n2c1 (racemic) [TGX-295, (±)-7-methyl-2-morpholin-4-yl-9-[1-(2-pyridinylamino)ethyl]-pyrido[1,2-a]pyrimidin-4-one] | – |
| – | – | – | – | – | COC[C@H]1OC(=O)c2coc3c2[C@@]1(C)C1=C(C3=O)[C@@H]2CCC(=O)[C@@]2(C)C[C@H]1OC(C)=O [wortmannin, reference compound] | eliminates platelet responses to accelerated shear |
